Source: patent publication US20080145886A1, “Assay for Cytochrome P450 Isoforms 3A4 and 3A5” (priority 2004, published 2008)

How the values were obtained:
[1] = target: T1, CYP3A4/5 (Homo sapiens, UniProt P08684); assay: in vitro; details: microsomes
Method: Quantification of 6β-hydroxytestosterone and 2β-hydroxytestosterone. Aliquots of the assay reaction mixture and of metabolite standard curves were analyzed by HPLC using an Agilent HP1100 liquid chromatograph (Agilent Technologies) equipped with a CTC Analytics PAL autosampler (HTS PAL; CTC Analytics AG, Switzerland). Chromatography was performed on an XTERRA MS C18 column (4.6 mm×5 cm; 5 μm; Waters Corp.) at a flow rate of 1 mL/min, using a mobile phase consisting of a mixture of 0.1% formic acid in water (A) and 0.1% formic acid in acetonitrile (B) (linear gradient for 4 min from 5-100% B; 2 min at 100% B). The eluant was diverted to waste for the first minute, and then to a Sciex API-2000 triple quadrupole mass spectrometer with a Turbo Ionspray ionization source operated in the positive ion mode. […] Metabolite concentrations were determined by weighted linear least-squares regression analysis of peak area ratios vs. those of a standard curve, using Analyst Quantitation Wizard software version 1.4.

[2] = target: T1, CYP3A4/5; assay: in vitro; details: pH 7.6; for IC50: microsomes
Method: Pooled HLM were obtained from Gentest Corp. (Woburn, Mass.). Inhibitors were added to the reaction mixture from stock solutions in DMSO, giving a final solvent concentration of 0.6% (v/v). No inhibitor controls contained an equivalent amount of vehicle. Following preincubation for 10 minutes at 37° C., reactions were started by addition of 1 mM NADPH and an NADPH regenerating system containing 5 mM glucose-6-phosphate, 3 mM MgCl2, and 1 U/mL glucose-6-phosphate dehydrogenase. Assays were conducted for 10 minutes at 37° C. and stopped by addition of HCl to a final concentration of 0.1 N. Plates were then centrifuged for 10 minutes in a microplate rotor and supernatants loaded into the wells of a preconditioned 30 mg OASIS 96-well HLB plate. OASIS HLB 96 well extraction plates containing 10 or 30 mg of OASIS sorbent and vacuum manifold were purchased from Waters Corp. Vacuum was applied and the void volume collected in the collection plate. Then, 200 μL of water was added, vacuum was applied again, and the wash was collected into the same plate. This step was repeated. Pooled void volume and water washes were transferred into scintillation vials and counted in a beta-scintillation counter. Alternatively, aliquots were counted in […] scintillation plates using a TOPCOUNT scintillation counter (Packard, Perkin Elmer, Boston, Mass.). For the calculation of enzyme activity, product counts were corrected by subtraction of counts obtained in control incubations performed in the absence of NADPH regenerating system.
Total radioactivity was 100,000 to 200,000 dpm, reaction volume was 100 μL, and solvent concentration (coming from inhibitor stock solutions) was 0.3-0.7% DMSO and 0.5% acetonitrile (v/v). […] Radioactivity was determined using a Beckman beta scintillation counter, or by counting 120 μL aliquots in 96-well scintillation plates using a TOPCOUNT scintillation counter. […]
Without using the known ^TV/K ratio (which would be tautological, since it was derived from SAP), v′, the apparent formation rate of unlabelled product, can be calculated. […]

[3] = target: T1, CYP3A4/5; details: human hepatocytes, 200 μM testosterone, 10 μM ketoconazole, 1 hour
Method: For each well, the flow-through was combined with the water washes and counted in a beta-counter after addition of scintillation fluid.
Aliquots were injected into an HPLC-MS/MS system for quantification of 6β-hydroxytestosterone. Quantification was based on comparison of peak areas with those of a standard curve that was treated and extracted exactly like unknown samples.

[4] = test system: CYP3A4/5
Method: Cryopreserved human hepatocytes from two different donors were obtained from Tissue Transformation Technologies (Edison, N.J.). […] CYP3A4/5 enzyme activity was then determined as follows.
The incubation medium was then loaded onto individual wells of preconditioned 30 mg OASIS plates, which were washed two times with 200 μL of water. For each well, the flow-through was combined with the water washes and counted in a beta-counter after addition of scintillation fluid. 6-p-hydroxytestosterone was eluted from the OASIS plates with 1 mL of methanol, dried under N2, and reconstituted in 200 uL of 50% acetonitrile/water (50:50) containing 0.1% of formic acid. Aliquots were injected into an HPLC-MS/MS system for quantification of 6β-hydroxytestosterone. Quantification was based on comparison of peak areas with those of a standard curve that was treated and extracted exactly like unknown samples.

[5] = target: T1, CYP3A4/5; details: HLM
[6] = target: T1, CYP3A4/5; details: HLM; remark: listed apart in the source
[7] = target: CYP3A4 (Homo sapiens, UniProt P08684); details: read-out: IC50 (Draper et al.); competitive substrate; cited from earlier work
Chain of CYP3A4 (P08684 whole entry): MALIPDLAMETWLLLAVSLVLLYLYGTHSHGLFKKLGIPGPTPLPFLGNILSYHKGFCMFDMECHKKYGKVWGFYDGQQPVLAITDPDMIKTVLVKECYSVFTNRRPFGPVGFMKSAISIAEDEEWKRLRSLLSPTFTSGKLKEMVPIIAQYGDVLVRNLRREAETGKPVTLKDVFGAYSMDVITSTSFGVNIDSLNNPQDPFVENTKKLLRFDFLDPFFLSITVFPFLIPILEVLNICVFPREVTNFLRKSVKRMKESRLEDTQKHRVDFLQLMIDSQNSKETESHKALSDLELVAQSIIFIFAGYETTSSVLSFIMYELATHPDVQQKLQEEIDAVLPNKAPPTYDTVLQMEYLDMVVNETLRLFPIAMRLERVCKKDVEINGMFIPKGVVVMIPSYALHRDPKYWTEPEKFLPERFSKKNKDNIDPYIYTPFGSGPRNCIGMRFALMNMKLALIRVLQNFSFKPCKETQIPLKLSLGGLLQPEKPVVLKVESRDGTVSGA

T1 sequence (P08684 2-503): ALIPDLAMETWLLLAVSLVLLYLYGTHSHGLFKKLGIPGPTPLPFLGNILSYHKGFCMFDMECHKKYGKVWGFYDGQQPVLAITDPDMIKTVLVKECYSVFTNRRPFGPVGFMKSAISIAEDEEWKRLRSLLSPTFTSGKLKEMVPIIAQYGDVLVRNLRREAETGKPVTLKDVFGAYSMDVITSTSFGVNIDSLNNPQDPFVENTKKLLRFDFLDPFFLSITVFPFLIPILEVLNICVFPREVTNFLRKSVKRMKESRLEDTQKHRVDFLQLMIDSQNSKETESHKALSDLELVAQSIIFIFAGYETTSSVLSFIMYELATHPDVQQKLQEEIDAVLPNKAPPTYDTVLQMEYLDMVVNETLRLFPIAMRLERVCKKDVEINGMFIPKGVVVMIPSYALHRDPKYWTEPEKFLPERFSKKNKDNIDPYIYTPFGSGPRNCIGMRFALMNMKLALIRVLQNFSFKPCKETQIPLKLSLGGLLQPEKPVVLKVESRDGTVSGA

CC(C)C[C@H]1C(=O)N2CCC[C@H]2[C@]2(O)O[C@](NC(=O)[C@@H]3C=C4c5cccc6[nH]c(Br)c(c56)C[C@H]4N(C)C3)(C(C)C)C(=O)N12 [Bromocriptine]
IC50 [1]: 1400 ± 10 nM | IC50 [2]: 1200 ± 300 nM

CC(=O)N1CCN(c2ccc(OCC3COC(Cn4ccnc4)(c4ccc(Cl)cc4Cl)O3)cc2)CC1 (stereo not shown) [Ketoconazole]
Formation rate of 6β-hydroxytestosterone [3]: Not detected | Inhibition of 6β-hydroxytestosterone formation in cultured hepatocytes [4]: almost completely inhibited | Inhibition of [^3H]-H2O formation in cultured hepatocytes [4]: almost completely inhibited

Clc1ccc(COC(Cn2ccnc2)c2ccc(Cl)cc2Cl)c(Cl)c1 (stereo not shown) [Miconazole]
IC50 [2]: 60 ± 10 nM

COC(=O)C1=C(C)NC(C)=C(C(=O)OCCN(C)Cc2ccccc2)C1c1cccc([N+](=O)[O-])c1 (stereo not shown) [Nicardipine]
n (Hill coefficient) Radiometric [5]: 2.5 | n (Hill coefficient) LC-MS [6]: 2.7

CC[C@H]1OC(=O)[C@H](C)[C@@H](O[C@H]2C[C@@](C)(OC)[C@@H](O)[C@H](C)O2)[C@H](C)[C@@H](O[C@@H]2O[C@H](C)C[C@H](N(C)C)[C@H]2O)[C@](C)(O)C[C@@H](C)C(=O)[C@H](C)[C@@H](O)[C@]1(C)O [erythromycin]
IC50 [7]: 130000 nM

C[C@]12CC[C@H]3[C@@H](CCC4=CC(=O)CC[C@@]43C)[C@@H]1CC[C@@H]2O [testosterone]
V′max (apparent maximal rate of product formation) [2]: 1.3 ± 0.1 nmol/min/mg
